Patent US5384314A, “1α-fluoro-25-hydroxy-16-ene-23-yne-cholecalciferol” (Hoffmann-La Roche Inc., priority 1994, dated 1995)
Where two headings read alike, the source gives them in different places.

What was measured:
[1] = tested on: human sebocytes (sebaceous cells); assay: inhibition of human sebocyte proliferation in vitro; assay type: cell-based; details: for IC50: read-out: ED50 (amount of compound necessary to inhibit the proliferation of the sebaceous cells by 50% as compared to a control)
Protocol: Sebaceous cells were isolated from adult human sebaceous glands as in J. Invest. Dermatol. 96:341-348 (1991) and cultured on a layer of growth-arrested 3T3 mouse fibroblasts.
The cells were cultured in Iscove's medium containing 10% fetal calf serum and 4 μg/ml dexamethasone.
Cells were plated in medium without 1α-fluoro-25-hydroxy-16-ene-23-yne-cholecalciferol. 24-48 hours after the initial plating, the cultures were given fresh medium containing the compound of the invention. Every 48 hours, the cultures were given fresh medium containing the compound of the invention. On the day of harvesting, the cultures were rinsed with a 0.03% EDTA in PBS, to remove only the 3T3 fibroblasts. The remaining sebocyyte colonies were incubated in 0.05% trypsin/0.03% EDTA to create a single cell suspension of sebocytes. The cells were diluted, mixed vigorously to maintain a single cell suspension, and counted in a hemocytometer.
The compounds tested were handled in the following manner. Stock solutions were made up as 10^-2 M solutions in degassed 100% ethanol and stored at -20° C. in the dark. Solutions were never used after storage of more than one month. During experimental use the solutions, which were aliquoted, were thawed once and used by diluting directly into complete medium to the appropriate concentration, at 10^-6, 10^-7, 10^-8 M and 10^-9. The compounds tested were
The results are summarized in table 1 as the amount of compound necessary to inhibit the proliferation of the sebaceous cells by 50% as compared to a control (ED50). The control was a culture treated with diluent only.

[2] = tested on: sebaceous glands in ears of the male Syrian hamster; details: cited from earlier work
[3] = tested on: hamster ear sebaceous gland; assay: hamster ear sebaceous gland model, topical study; assay type: in vivo; details: 4 weeks, vs control
Protocol: The compound was evaluated for topical anti-acne activity in the hamster ear sebaceous gland model. For these studies, the compound was dissolved in acetone. Fifty (50) μl of the drug-containing solution was applied daily (5 days per week) to the dorsal side of the right ear of the hamster. Control hamsters received 50 μl of acetone. The animals were sacrificed after 4 weeks. The ears were removed and processed for histological evaluation. The ventral surface was separated from the rest of the ear. A 2 mm punch was removed 5 mm from the tip of the ear and stained in 0.1% Sudan Black B dissolved in 100% propylene glycol overnight. After destaining, the areas of the sebaceous glands were determined from the cross sections by image analysis using a Donsato Image Analysis System. The data was expressed as a percentage change from control animals for 80-120 sebaceous glands per dose.

[4] = tested on: hamster ear sebaceous gland; assay: hamster ear sebaceous gland model, oral study; assay type: in vivo, male Golden Syrian hamsters; details: 4 weeks
Protocol: The purpose of the test was to evaluate the effect of the inventive compound on the sebaceous glands of the hamster ear after oral administration of the compound. 200 μl of the compound of the invention dissolved in Tween 20/water/ethanol […] administered daily (5 days per week) by garage to male Golden Syrian hamsters. The animals were sacrificed at 4 weeks and the ears were processed for histological evaluation. One ear was fixed with 10% buffered formalin, processed for paraffin embedding, sectioned, and stained with hematoxyline and eosin (H&E). The area of the sebaceous glands was measured on histologically prepared cross-sections of the ear by image analysis using a Leitz TAS Plus system. Data is given as the average areas of 48 sebaceous glands per dose.

## C=C1/C(=C\C=C2/CCC[C@]3(C)[C@@H]([C@H](C)CCCC(C)(C)O)CC[C@@H]23)C[C@@H](O)C[C@@H]1O [1,25-dihydroxycholecalciferol, reference compound]
[1]; Homo sapiens
  IC50: 0.05 µM
[2]
  size of sebaceous glands in ears (result in words): reducing the size of sebaceous glands in ears of the male Syrian hamster

## C=C1/C(=C\C=C2/CCC[C@]3(C)C([C@H](C)CC#CC(C)(C)O)=CC[C@@H]23)C[C@@H](O)C[C@@H]1F [1α-fluoro-25-hydroxy-16-ene-23-yne-cholecalciferol]
[1]; human sebocytes in vitro, control treated with diluent only
  IC50: 0.001 µM
[1]; in vitro
  human sebocyte proliferation in vitro (result in words): inhibits human sebocyte proliferation in vitro
[3]; 0.001 μg/animal, ns = not statistically significant from controls
  Change in Hamster Ear Sebaceous Gland Size Cross Section Analysis: -3%
[3]; 0.01 μg/animal, ns = not statistically significant from controls
  Change in Hamster Ear Sebaceous Gland Size Cross Section Analysis: -18%
[3]; 0.1 μg/animal, ns = not statistically significant from controls
  Change in Hamster Ear Sebaceous Gland Size Cross Section Analysis: -28%
[3]; 1.0 μg/animal, not marked ns
  Change in Hamster Ear Sebaceous Gland Size Cross Section Analysis: -40%
[4]; 0.05 μg/kg
  % Change in Hamster Ear Sebaceous Gland Size Cross Section Analysis: -28%
[4]; 0.5 μg/kg
  % Change in Hamster Ear Sebaceous Gland Size Cross Section Analysis: -28%
[4]; 5.0 μg/kg
  % Change in Hamster Ear Sebaceous Gland Size Cross Section Analysis: -34%
[4]; 50.0 μg/kg
  % Change in Hamster Ear Sebaceous Gland Size Cross Section Analysis: -35%
